In BindingDB's records for doi:10.1016/j.bmcl.2004.06.018 (Darmstadt Technical University, 2004) one finds IC50 data, which are given here for two molecules.

The term IC50 denotes the concentration at which inhibition is half-maximal. The low end stands for inhibition by little substance, the high end for a need for much substance.

The assay concerns the target Proto-oncogene tyrosine-protein kinase Src (Homo sapiens, UniProt P12931). Nature of the assay: Inhibition of fluorescent (GpYEEI) binding to Src protein tyrosine kinase SH2 domain.

Sequence of Proto-oncogene tyrosine-protein kinase Src (P12931 2-536 limits assumed): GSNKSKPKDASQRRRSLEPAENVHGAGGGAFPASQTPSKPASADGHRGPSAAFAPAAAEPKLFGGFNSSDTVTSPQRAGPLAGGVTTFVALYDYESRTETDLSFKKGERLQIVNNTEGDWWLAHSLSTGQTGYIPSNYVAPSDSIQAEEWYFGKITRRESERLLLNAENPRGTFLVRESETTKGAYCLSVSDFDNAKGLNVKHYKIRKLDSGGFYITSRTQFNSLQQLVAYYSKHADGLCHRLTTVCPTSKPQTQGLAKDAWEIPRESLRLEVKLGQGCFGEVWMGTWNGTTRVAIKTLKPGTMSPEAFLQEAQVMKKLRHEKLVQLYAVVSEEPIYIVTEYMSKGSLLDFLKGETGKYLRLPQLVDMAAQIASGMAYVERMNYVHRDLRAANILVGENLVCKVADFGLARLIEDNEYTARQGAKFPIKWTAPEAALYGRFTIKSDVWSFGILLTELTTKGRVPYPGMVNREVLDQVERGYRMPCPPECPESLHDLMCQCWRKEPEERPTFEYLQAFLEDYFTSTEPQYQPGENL

In turn, `COc1cccc(CNC(=O)[C@@H](NC(=O)COc2cc3[n+]4c(c2)C(=O)[O][Cu]4([OH])[O]C3=O)c2ccccc2)c1` [Copper complex] displayed an IC50 of 20 µM.

`COc1cccc(CNC(=O)[C@H](Cc2ccccc2)NC(=O)COc2cc3[n+]4c(c2)C(=O)[O][Cu]4([OH])[O]C3=O)c1` [Copper complex] gave an IC50 of 17 µM.
